Results on three molecules are retold here after ChEMBL document CHEMBL1201862, “PubChem BioAssay data set” (2004).

Calls of active or inactive are those of the source. Some results are limits rather than exact numbers.

In experiment [1] the target is Mitogen-activated protein kinase kinase kinase kinase 5 (Homo sapiens, UniProt Q9Y4K4). The experiment is classed as functional.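 Further: measured as one member of a kinome-spanning kinase panel.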
Experiment [2] has as its target Cyclin-dependent kinase 9 (Homo sapiens, UniProt P50750). The experiment is classed as functional.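 Further: value from the CDK9 entry of a kinome-spanning kinase panel.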
Experiment [3] in a line: NIH-3T3 fibroblast cytotoxicity, dose response, cytotoxicity control, cell-based, fluorescence, Alamar Blue, secondary assay (AID 2327).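 Further: NIH-3T3 mouse fibroblasts cultured with fluconazole at 8 µg/mL.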 The experiment is classed as functional.
Experiment [4] has as its target T1, Exodeoxyribonuclease V (Escherichia coli (strain K12), UniProt P04993+P07648+P08394).
T1 sequence (P04993 whole entry): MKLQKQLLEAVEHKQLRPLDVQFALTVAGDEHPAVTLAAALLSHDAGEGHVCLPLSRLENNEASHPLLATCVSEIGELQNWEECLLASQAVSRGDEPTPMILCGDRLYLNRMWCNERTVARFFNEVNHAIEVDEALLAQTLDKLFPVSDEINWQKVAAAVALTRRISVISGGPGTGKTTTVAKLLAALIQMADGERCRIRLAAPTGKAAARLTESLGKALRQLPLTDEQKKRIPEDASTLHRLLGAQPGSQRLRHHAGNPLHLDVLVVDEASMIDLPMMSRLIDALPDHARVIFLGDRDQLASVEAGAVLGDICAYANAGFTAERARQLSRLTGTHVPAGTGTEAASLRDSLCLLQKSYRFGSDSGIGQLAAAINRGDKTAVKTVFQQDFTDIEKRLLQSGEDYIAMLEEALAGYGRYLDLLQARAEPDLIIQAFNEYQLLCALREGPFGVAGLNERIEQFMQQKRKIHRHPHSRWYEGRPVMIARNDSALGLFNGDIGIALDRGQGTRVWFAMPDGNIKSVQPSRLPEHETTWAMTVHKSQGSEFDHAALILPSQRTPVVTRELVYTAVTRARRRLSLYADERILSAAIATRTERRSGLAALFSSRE
T1 sequence (P07648 whole entry): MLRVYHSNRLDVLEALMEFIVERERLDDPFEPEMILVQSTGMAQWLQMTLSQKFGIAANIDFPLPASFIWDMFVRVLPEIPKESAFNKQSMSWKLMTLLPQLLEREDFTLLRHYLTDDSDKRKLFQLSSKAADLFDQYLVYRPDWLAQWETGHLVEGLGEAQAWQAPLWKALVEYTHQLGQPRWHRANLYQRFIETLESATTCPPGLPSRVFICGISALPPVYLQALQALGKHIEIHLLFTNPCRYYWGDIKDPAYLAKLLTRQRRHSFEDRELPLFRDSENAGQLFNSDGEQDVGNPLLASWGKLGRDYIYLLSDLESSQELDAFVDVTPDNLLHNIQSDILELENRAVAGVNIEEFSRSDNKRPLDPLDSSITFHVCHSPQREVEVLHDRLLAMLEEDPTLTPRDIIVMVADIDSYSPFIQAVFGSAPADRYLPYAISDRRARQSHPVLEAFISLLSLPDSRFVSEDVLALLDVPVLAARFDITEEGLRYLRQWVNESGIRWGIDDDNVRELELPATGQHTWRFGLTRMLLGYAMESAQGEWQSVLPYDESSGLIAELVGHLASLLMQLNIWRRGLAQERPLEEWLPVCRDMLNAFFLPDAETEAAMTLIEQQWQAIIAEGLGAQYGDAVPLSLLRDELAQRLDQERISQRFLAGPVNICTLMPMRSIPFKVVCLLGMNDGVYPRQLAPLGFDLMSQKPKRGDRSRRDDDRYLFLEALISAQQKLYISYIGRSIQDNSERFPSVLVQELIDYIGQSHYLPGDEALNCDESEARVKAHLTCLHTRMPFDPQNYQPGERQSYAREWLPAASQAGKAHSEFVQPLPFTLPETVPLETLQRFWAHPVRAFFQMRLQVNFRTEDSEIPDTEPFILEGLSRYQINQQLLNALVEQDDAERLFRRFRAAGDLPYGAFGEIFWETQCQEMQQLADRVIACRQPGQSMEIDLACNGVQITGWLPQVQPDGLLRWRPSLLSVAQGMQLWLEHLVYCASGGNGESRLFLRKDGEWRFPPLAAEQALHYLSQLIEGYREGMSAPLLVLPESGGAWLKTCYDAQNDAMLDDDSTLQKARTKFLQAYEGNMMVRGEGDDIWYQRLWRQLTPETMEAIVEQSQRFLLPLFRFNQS
T1 sequence (P08394 whole entry): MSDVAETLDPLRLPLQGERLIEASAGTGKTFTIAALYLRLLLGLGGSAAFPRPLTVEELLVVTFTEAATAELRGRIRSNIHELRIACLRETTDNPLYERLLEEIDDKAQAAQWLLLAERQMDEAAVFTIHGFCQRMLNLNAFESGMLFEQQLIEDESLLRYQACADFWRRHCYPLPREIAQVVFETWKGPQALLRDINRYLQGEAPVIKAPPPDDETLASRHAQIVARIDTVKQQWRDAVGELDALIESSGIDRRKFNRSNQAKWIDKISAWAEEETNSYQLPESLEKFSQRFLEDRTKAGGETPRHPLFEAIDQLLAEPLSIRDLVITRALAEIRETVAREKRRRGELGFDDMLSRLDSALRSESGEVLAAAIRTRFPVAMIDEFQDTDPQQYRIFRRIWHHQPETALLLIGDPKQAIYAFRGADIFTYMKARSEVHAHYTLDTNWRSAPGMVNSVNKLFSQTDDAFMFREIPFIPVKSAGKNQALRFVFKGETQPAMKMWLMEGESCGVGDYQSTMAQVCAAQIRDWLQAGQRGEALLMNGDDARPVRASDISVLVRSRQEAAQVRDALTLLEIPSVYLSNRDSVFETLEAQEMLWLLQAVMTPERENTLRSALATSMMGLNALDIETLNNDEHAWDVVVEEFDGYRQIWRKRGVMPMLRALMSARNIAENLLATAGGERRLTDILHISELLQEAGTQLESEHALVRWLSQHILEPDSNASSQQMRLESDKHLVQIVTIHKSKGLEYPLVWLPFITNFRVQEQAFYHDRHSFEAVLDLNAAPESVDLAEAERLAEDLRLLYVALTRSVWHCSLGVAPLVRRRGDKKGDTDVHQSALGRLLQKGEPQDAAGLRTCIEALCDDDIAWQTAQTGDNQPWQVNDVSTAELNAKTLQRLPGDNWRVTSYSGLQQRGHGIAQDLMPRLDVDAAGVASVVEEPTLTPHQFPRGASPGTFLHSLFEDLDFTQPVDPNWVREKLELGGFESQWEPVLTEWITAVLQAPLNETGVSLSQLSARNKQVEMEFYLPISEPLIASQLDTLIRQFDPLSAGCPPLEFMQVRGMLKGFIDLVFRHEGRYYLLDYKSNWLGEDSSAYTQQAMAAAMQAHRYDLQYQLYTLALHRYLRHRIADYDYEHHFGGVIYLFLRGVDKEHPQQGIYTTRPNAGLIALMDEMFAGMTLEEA
Description: RecBCD inhibition via phage-restricted bacterial growth – absorbance, V66 E. coli, mutant T4 phage, counter-screen for AddAB inhibitor project, dose response (AID 492957). The experiment is classed as functional, cell-based, Escherichia coli str. K-12 substr. MG1655. Background: Counterscreens check selectivity or assay interference.

For experiment [5], the system named is HEK293. Description: EBV LMP1 TES2 canonical NF-kB signalling blockers – cell-based, HEK293, luciferase, cherry-pick, dose response (AID 588343). The experiment is classed as functional. As to conditions: Homo sapiens.

For orientation: Ki means a measure of affinity in units of concentration, obtained from inhibition or displacement. What is called EC50 is the concentration that produces a half-maximal response. Broadly, the IC50 is the concentration that gives 50% inhibition. A word on the AC50: it is the concentration at which the activity in the assay is half-maximal.

Chain of Mitogen-activated protein kinase kinase kinase kinase 5 (Q9Y4K4 whole entry): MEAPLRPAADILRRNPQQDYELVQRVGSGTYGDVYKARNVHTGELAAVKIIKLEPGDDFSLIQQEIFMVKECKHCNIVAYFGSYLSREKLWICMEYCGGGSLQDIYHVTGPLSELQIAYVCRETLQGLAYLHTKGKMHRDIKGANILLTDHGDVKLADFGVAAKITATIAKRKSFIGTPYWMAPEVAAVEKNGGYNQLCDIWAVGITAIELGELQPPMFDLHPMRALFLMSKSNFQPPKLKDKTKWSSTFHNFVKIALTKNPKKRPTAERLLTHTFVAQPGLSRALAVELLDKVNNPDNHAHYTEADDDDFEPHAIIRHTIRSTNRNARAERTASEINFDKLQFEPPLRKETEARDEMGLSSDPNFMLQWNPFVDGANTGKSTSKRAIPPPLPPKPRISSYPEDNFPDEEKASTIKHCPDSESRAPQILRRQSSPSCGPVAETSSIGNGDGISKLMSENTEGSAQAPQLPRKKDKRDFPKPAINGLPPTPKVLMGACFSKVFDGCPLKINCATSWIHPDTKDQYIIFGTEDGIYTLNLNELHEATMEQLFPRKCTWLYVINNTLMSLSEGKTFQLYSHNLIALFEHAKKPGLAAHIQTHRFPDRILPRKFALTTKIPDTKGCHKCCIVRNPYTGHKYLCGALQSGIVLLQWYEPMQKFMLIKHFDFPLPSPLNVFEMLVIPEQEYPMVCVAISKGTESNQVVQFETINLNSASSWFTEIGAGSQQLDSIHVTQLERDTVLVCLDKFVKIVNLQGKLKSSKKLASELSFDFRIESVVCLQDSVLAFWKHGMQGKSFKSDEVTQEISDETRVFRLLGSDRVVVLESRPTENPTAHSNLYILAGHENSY
Chain of Cyclin-dependent kinase 9 (P50750 whole entry): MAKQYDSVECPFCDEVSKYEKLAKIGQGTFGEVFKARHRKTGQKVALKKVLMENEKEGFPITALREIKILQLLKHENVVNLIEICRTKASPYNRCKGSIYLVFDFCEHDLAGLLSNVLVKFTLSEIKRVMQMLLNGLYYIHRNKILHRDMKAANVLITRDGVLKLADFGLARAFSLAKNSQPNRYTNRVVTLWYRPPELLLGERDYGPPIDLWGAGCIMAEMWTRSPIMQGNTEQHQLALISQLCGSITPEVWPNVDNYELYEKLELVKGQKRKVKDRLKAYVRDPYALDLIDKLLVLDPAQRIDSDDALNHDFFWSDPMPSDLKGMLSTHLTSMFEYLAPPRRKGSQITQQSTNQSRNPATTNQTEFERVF

In the case of `Clc1cc(-c2c[nH]c3ncccc23)nc(NC2CCCCC2)n1`, the Ki was > 2 µM (inactive) in experiment [1] and > 0.794 µM (inactive) in experiment [2].
Consider `CCC(=O)NC(c1ccccc1OC)c1ccc2cccnc2c1O` (configuration not stated), for which the EC50 in experiment [3] was 26.6 µM (inconclusive). Moreover, the IC50 in experiment [4] is > 119 µM (inactive).
Turning to `O=C(N/N=C/c1ccc(O)cc1O)c1ccc(CN2C(=O)c3cccc4cccc2c34)cc1`, the EC50 in experiment [3] was 4.96 µM (active). Further, in experiment [4], the IC50 was > 119 µM (inactive). The AC50 in experiment [5] was 6.46 µM (active).
